Like-named read-outs stand apart in the source and are kept apart here.
Test system: TYR
Experiment: Assessment of gene modulation in normal human epidermal melanocytes (RT-qPCR, PCR array mQPA H-Melanocyte-64)
Format: cell-based
Conditions: NHEM cells, 72 hours treatment
Description: Normal human epidermal melanocytes were cultivated for 24 hours. Culture medium was then removed and replaced by fresh medium containing the active ingredient to be evaluated or exempt of it (control). Cells were cultivated for additional 72 hours. All experimental conditions were performed in triplicate. At the end of the cultivation, the cells were harvested and washed with phosphate buffered saline (PBS) solution and immediately frozen at -80 °C. The expression of selected markers was analyzed using RT-qPCR method on mRNA extracted from cells layer for each treatment condition. The differential expression analysis was performed by PCR arrays of the screening format "mQPA H-Melanocyte-64", which focuses on 64 genes selected for their importance in pigmentation and melanocyte biology. Total RNA was extracted from each sample using TRI-Reagent®. The amount and quality of the RNA was evaluated using a lab-on-a-chip Bioanalyzer (Agilent technologies). Potential contaminants traces of DNA were removed […] The incorporation of fluorescence in amplified DNA was measured continuously during the PCR cycles. […] The value selected for RE calculations is the "output point" (Ct) of the fluorescence curve. For a given marker, the highest is the cycle number; the lowest, is the mRNA quantity. The RE value is expressed in arbitrary units (AU) according to the equation: (((1)/(2)))^NC x 10^6 [formula] Where NC is the number of cycles.

[1] = resveratrol 5 µg/ml, sodium-ascorbyl-phosphate 1 mg/ml, combination 5 µg/ml + 1 mg/ml, read-out: TYR (expression ratio compared to control of the gene TYR)
[2] = resveratrol 5 micrograms/ml, sodium-ascorbyl-phosphate 1mg/ml, alone or combined, positive = up-regulation, negative = down-regulation, read-out: up-regulation / down-regulation of TYR when compared to untreated cells

## Oc1ccc(C=Cc2cc(O)cc(O)c2)cc1 [Resveratrol, 3,4',5 trihydroxystilbene]
[1]
  activation at 5 µg/mL: 25%
[2]
  activation at 5 µg/mL: 25%

## O=C1O[C@H]([C@@H](O)CO)C(O)=C1OP(=O)(O)O [Sodium-ascorbyl-phosphate]
[1]
  activation at 1000 µg/mL: 30%
[2]
  activation at 1000 µg/mL: 30%

Source: patent EP2522335A1, “Use of resveratrol and sodium-ascorbyl-phophate” (DSM IP Assets B.V., priority 2011, dated 2012)
